Laboratory results from patent publication US8084466B2, “Bicyclic heteroaryl-substituted imidazoles as modulators of the histamine H4 receptor” (Janssen Pharmaceutica NV, priority 2007, dated 2011).

Molecular target: T1, human histamine H4 receptor (Homo sapiens, UniProt Q9H3N8)
T1 construct: expressed in transfected cells; host or cells: SK-N-MC cells or COS7 cells, transient transfection with pH4R; cell membranes
Experiment: Binding Assay on Recombinant Human Histamine H4 Receptor
Details: competition binding with 3H-histamine (5 nM; KD 5 nM), membranes of SK-N-MC or COS7 cells expressing human H4 receptor; average of results; > = highest value tested
Summary of the method: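 Membranes from SK-N-MC or COS7 cells transiently transfected with H4R incubated 45 min at room temperature with ³H-histamine; nonspecific binding defined with 10,000 nM histamine. Filtration and scintillation counting. Ki from competition with 5 nM ³H-histamine, using a KD of 5 nM.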

T1 sequence (Q9H3N8 whole entry): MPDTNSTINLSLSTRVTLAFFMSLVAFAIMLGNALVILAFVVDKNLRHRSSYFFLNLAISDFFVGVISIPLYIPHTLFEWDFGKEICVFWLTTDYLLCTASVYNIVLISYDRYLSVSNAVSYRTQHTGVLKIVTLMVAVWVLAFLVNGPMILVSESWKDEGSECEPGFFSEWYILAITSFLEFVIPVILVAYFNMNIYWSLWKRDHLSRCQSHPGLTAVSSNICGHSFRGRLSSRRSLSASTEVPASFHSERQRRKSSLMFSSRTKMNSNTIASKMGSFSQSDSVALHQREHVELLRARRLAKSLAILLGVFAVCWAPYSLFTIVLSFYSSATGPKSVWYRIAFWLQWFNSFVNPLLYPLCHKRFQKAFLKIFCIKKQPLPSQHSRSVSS

SMILES	Ki [nM]
CN1CCC(CCCCn2ccc3c(-c4nc5cc(F)ccc5[nH]4)cccc32)CC1 [Example 69, 5-Fluoro-2-{1-[4-(1-methyl-piperidin-4-yl)-butyl]-1H-indol-4-yl}-1H-benzoimidazole]	325
Cc1cc(C)c2nc(-c3ccc4c(c3)c(C)c(C)n4CCCC3CCNCC3)[nH]c2c1 [Example 89, 2-[2,3-Dimethyl-1-(3-piperidin-4-yl-propyl)-1H-indol-5-yl]-4,6-dimethyl-1H-benzoimidazole]	2000
Cc1cc(Cl)cc2[nH]c(-c3cccc4c3ccn4CCCCC3CCN(C)CC3)nc12 [Example 22, 6-Chloro-4-methyl-2-{1-[4-(1-methyl-piperidin-4-yl)-butyl]-1H-indol-4-yl}-1H-benzoimidazole]	105
CN1CCC(CCCCn2cc(Cl)c3c(-c4nc5cc(C(F)(F)F)ccc5[nH]4)cccc32)CC1 [Example 30, 2-{3-Chloro-1-[4-(1-methyl-piperidin-4-yl)-butyl]-1H-indol-4-yl}-5-trifluoromethyl-1H-benzoimidazole]	47
Cc1cc(C)c2nc(-c3ccc4c(c3)c(C)c(C)n4CCCC3CCN(C)CC3)[nH]c2c1 [Example 14, 2-{2,3-Dimethyl-1-[3-(1-methyl-piperidin-4-yl)-propyl]-1H-indol-5-yl}-4,6-dimethyl-1H-benzoimidazole]	84
CN1CCC(CCCCn2cc(Cl)c3c(-c4nc5cccc(C(=O)c6ccccc6)c5[nH]4)cccc32)CC1 [Example 72, (2-{3-Chloro-1-[4-(1-methyl-piperidin-4-yl)-butyl]-1H-indol-4-yl}-3H-benzoimidazol-4-yl)-phenyl-methanone]	545
CN1CCC(CCCCn2cnc3cc(-c4nc5cc(F)ccc5[nH]4)ccc32)CC1 [Example 120, 5-Fluoro-1′-[4-(1-methyl-piperidin-4-yl)-butyl]-1H,1′H-[2,5′]bibenzoimidazolyl]	3330
CN1CCC(CCCN2CCc3cc(-c4nc5cc(Cl)ccc5[nH]4)ccc32)CC1 [Example 97, 5-Chloro-2-{1-[3-(1-methyl-piperidin-4-yl)-propyl]-2,3-dihydro-1H-indol-5-yl}-1H-benzoimidazole]	43
Cc1ccc2[nH]c(-c3ccc4c(ncn4CCCC4CCN(C)CC4)c3C)nc2c1C [Example 52, 5,4′-Trimethyl-1′-[3-(1-methyl-piperidin-4-yl)-propyl]-1H,1′H-[2,5′]bibenzoimidazolyl]	33
Cc1c(F)ccc2[nH]c(-c3ccc4c(c3)c(CN(C)C)cn4CCCC3CCN(C)CC3)nc12 [Example 86, {5-(5-Fluoro-4-methyl-1H-benzoimidazol-2-yl)-1-[3-(1-methyl-piperidin-4-yl)-propyl]-1H-indol-3-ylmethyl}-dimethyl-amine]	> 10000
Cc1c(F)ccc2[nH]c(-c3cnc4c(ccn4CCCC4CCN(C)CC4)c3)nc12 [Example 46, 5-Fluoro-4-methyl-2-{1-[3-(1-methyl-piperidin-4-yl)-propyl]-1H-pyrrolo[2,3-b]pyridin-5-yl}-1H-benzoimidazole]	12
Cc1[nH]c(-c2ccc3c(ccn3CCCN3CCN(C)CC3)c2)nc1-c1cccc(C(F)(F)F)c1 [Example 79, 1-[3-(4-Methyl-piperazin-1-yl)-propyl]-5-[5-methyl-4-(3-trifluoromethyl-phenyl)-1H-imidazol-2-yl]-1H-indole]	228
Fc1ccc2[nH]c(-c3cccc4c3ccn4CCCCC3CCNCC3)nc2c1 [Example 115, 5-Fluoro-2-[1-(4-piperidin-4-yl-butyl)-1H-indol-4-yl]-1H-benzoimidazole]	> 10000
Cc1c(F)ccc2[nH]c(-c3ccc4c(c3)c(Cl)cn4CCCC3CCNCC3)nc12 [Example 87, 2-[3-Chloro-1-(3-piperidin-4-yl-propyl)-1H-indol-5-yl]-5-fluoro-4-methyl-1H-benzoimidazole]	1830
Cc1c(F)ccc2[nH]c(-c3ccc4c(c3)ncn4CCCC3CCN(C)CC3)nc12 [Example 40, 5-Fluoro-4-methyl-1′-[3-(1-methyl-piperidin-4-yl)-propyl]-1H,1′H-[2,5′]bibenzoimidazolyl]	65
Cc1c(-c2nc(C(F)(F)F)c(-c3ccccc3)[nH]2)ccc2c1ncn2CCCC1CCN(C)CC1 [Example 84, 4-Methyl-1-[3-(1-methyl-piperidin-4-yl)-propyl]-5-(5-phenyl-4-trifluoromethyl-1H-imidazol-2-yl)-1H-benzoimidazole]	8
